Test results reported in US20250304563A1, “ACTIVATORS OF EFFECTOR T CELLS” (Orum Therapeutics, Inc., priority 2022, published 2025).

What was measured:
[1] = molecular target: Cbl-b (36-427 aa truncated form, N-terminus Avi-tag) (Homo sapiens (Human), UniProt Q13191); experiment: Cbl-b binding: TR-FRET displacement of BODIPY-FL probe
Method in brief: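 IC50 from loss of terbium–BODIPY-FL TR-FRET signal as compounds compete off a fluorescent Cbl-b inhibitor probe (1 uM) for 1 h at RT. Protein: N-Avi-tagged human Cbl-b 36-427 on streptavidin-terbium, 20 mM HEPES pH 7.5 buffer.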

[2] = tested on: Human primary T cells; experiment: T cell activation: secreted IL-2; type: cell-based; details: 48 hours, fold over background normalized to Compound 141A; for IL-2 1 nM: 1 nM compound; for IL-2 10 nM: 10 nM compound; for IL-2 100 nM: 100 nM compound
Description: (§1) Human primary T cells were isolated from commercially available frozen peripheral blood mononuclear cells (HemaCare Corporation) or from fresh LeukoPaks (Research Blood Components). T cells were isolated through depletion of non-T cells using negative selection kit according to the manufacturer's protocol (Miltenyi Biotec, Human Pan T Cell Isolation Kit, 130-096-535). Isolated cells were cultured overnight at 37° C. with 5% CO2 and plated at 1×10^5 cells per well in XVivo-15 serum-free media (Lonza, 04-418Q) into 96 well plates coated with anti-CD3 (OKT3) antibody (ThermoFisher, 16-0037-85). To coat the plates for T cell capture, anti-CD3 antibody was diluted in PBS at 10 μg/mL and 100 μl added to each well. Plates were incubated at 4° C. overnight or at 37° C. for 2 hours and washed once with PBS before use. Serial dilutions of each compound were added in duplicates to the T cells to assess their effect on T cell activation. T cells treated with 5 μg/mL of CD28 antibody (ThermoFisher, 16-0289-85) or T cells stimulated by CD3 only were used as a control. Plates were incubated with the Cbl-b inhibitors for 48 hours at 37° C. with 5% CO2, and supernatants were subsequently analyzed for levels of the activation induced secreted cytokines IL-2 or IFN-y (BD Biosciences CBA Flex Beads, 558269, 558270). T cells were additionally stained with anti-CD69 antibody (Invitrogen, 12-0699-42 which labels a T cell activation associated membrane protein to and surface expression was measured by flow cytometry (ThermoFisher Attune NxT).
(§2) To control for natural inter-donor variability in T cell responses intrinsic to using primary human donor derived cells, secreted IL-2 and IFN-y measurements for each test compound were reported as the fold increase of the compound treated levels over background (antiCD3/CD28 treatment only) normalized to the values obtained for Compound 141A. Results for compound treatment-induced changes in CD69 levels are similarly reported as the fold increase due to compound treatment over anti-CD3 stimulated background only, normalized to values obtained for Compound 141A.
Normalized T cell IL-2 responses were sorted into ranges as follows: fold over background values between 1.41 and 1.8: range “X”, between 0.80 and 1.40: range “A”, values between 0.31 and 0.79: range “B” values between 0.10 and 0.30: range “C”, values between 0.01 and 0.09: range “D.”

[3] = tested on: Human primary T cells; experiment: T cell activation: secreted IFN-y; type: cell-based; details: 48 hours, fold over background normalized to Compound 141A; for IFN-y 1 nM: 1 nM compound; for IFN-y 10 nM: 10 nM compound; for IFN-y 100 nM: 100 nM compound
Description: as §1, §2
Normalized T cell IFN-y responses were sorted into ranges as follows: fold over background between 1.10 and 2.00: range “A”, values between 0.31 and 1.00: range “B;” values between 0.10 and 0.30: range “C”, and values between 0.01 and 0.09: range “D.”

[4] = tested on: Human primary T cells; experiment: T cell activation: CD69 surface expression by flow cytometry; type: cell-based; details: fold over anti-CD3 stimulated background normalized to Compound 141A; for CD69 10 nM: 10 nM compound; for CD69 100 nM: 100 nM compound
Description: as §1, §2
Similarly, bins for normalized CD69 levels were sorted into ranges as follows: fold over background values between 1.11 and 1.6: range “X”, values between 0.81 and 1.10: range “A”; values between 0.61 and 0.80: range “B;” values between 0.30 and 0.60: range “C”.

Sequence of Cbl-b (36-427 aa truncated form, N-terminus Avi-tag) (Q13191 36-427): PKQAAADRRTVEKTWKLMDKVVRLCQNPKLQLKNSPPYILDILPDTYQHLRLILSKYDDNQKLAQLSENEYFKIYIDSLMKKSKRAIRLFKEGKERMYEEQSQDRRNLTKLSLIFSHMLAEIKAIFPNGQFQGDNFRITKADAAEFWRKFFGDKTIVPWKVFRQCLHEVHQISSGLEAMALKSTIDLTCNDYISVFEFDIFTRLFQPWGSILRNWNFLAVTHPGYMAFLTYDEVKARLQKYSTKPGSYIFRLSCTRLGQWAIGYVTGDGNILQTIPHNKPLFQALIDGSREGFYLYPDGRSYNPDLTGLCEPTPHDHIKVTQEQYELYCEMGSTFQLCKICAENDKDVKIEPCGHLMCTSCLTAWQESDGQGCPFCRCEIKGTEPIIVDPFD

Row | Structure (SMILES) | IC50 [1] [nM] | IL-2 1 nM [2] | IL-2 10 nM [2] | IL-2 100 nM [2] | IFN-y 1 nM [3] | IFN-y 10 nM [3] | IFN-y 100 nM [3] | CD69 10 nM [4] | CD69 100 nM [4]
1 | C[C@H]1CCCN(Cc2cc3c(c(C(F)(F)F)c2)CN(c2cc(C4(Cc5nncn5C)COC4)cc(C#N)n2)C3=O)C1 [Compound 115, 4-{3-[(4-methyl-1,2,4-triazol-3-yl)methyl]oxetan-3-yl}-6-(6-{[(3S)-3-methylpiperidin-1-yl]methyl}-1-oxo-4-(trifluoromethyl)-3H-isoindol-2-yl)pyridine-2-carbonitrile] | 100 to 1000 | C (values between 0.10 and 0.30: range “C”) | C (values between 0.10 and 0.30: range “C”) | B (values between 0.31 and 0.79: range “B”) | C (values between 0.10 and 0.30: range “C”) | C (values between 0.10 and 0.30: range “C”) | B (values between 0.31 and 1.00: range “B;”) | C (values between 0.30 and 0.60: range “C”) | B (values between 0.61 and 0.80: range “B;”)
2 | CCNc1cc(C2(Cc3nncn3C)COC2)cc(N2Cc3c(cc(C(CSC)N4CCC[C@H](C)C4)cc3C(F)(F)F)C2=O)n1.O=C(O)C(F)(F)F (stereo partly drawn) [Compound 117, 2-[6-(ethylamino)-4-{3-[(4-methyl-1,2,4-triazol-3-yl)methyl]oxetan-3-yl}pyridin-2-yl]-6-{1-[(3S)-3-methylpiperidin-1-yl]-2-(methylsulfanyl)ethyl}-4-(trifluoromethyl)-3H-isoindol-1-one; trifluoroacetic acid] | 20 to 100 | C (values between 0.10 and 0.30: range “C”) | C (values between 0.10 and 0.30: range “C”) | C (values between 0.10 and 0.30: range “C”) | C (values between 0.10 and 0.30: range “C”) | C (values between 0.10 and 0.30: range “C”) | B (values between 0.31 and 1.00: range “B;”) | C (values between 0.30 and 0.60: range “C”) | B (values between 0.61 and 0.80: range “B;”)
3 | C[C@H]1CCCN(Cc2cc3c(c(C(F)(F)F)c2)CN(c2cc(C4(Cc5nncn5C)COC4)cc(NCCN=[N+]=[N-])n2)C3=O)C1 [Compound 118, 2-{6-[(2-azidoethyl)amino]-4-{3-[(4-methyl-1,2,4-triazol-3-yl)methyl]oxetan-3-yl}pyridin-2-yl}-6-{[(3S)-3-methylpiperidin-1-yl]methyl}-4-(trifluoromethyl)-3H-isoindol-1-one] | 1 to 5 | B (values between 0.31 and 0.79: range “B”) | B (values between 0.31 and 0.79: range “B”) | A (between 0.80 and 1.40: range “A”) | B (values between 0.31 and 1.00: range “B;”) | A (fold over background between 1.10 and 2.00: range “A”) | A (fold over background between 1.10 and 2.00: range “A”) | A (values between 0.81 and 1.10: range “A”) | A (values between 0.81 and 1.10: range “A”)
4 | C[C@H]1CCCN(Cc2cc3c(c(C(F)(F)F)c2)CN(c2cc(C4(Cc5nncn5C)COC4)cc(NCC#N)n2)C3=O)C1 [Compound 119, (S)-2-((4-(3-((4-methyl-4H-1,2,4-triazol-3-yl)methyl)oxetan-3-yl)-6-(6-((3-methylpiperidin-1-yl)methyl)-1-oxo-4-(trifluoromethyl)isoindolin-2-yl)pyridin-2-yl)amino)acetonitrile] | 1 to 5 | C (values between 0.10 and 0.30: range “C”) | B (values between 0.31 and 0.79: range “B”) | B (values between 0.31 and 0.79: range “B”) | C (values between 0.10 and 0.30: range “C”) | B (values between 0.31 and 1.00: range “B;”) | B (values between 0.31 and 1.00: range “B;”) | B (values between 0.61 and 0.80: range “B;”) | A (values between 0.81 and 1.10: range “A”)

Further lines, with some results ahead:

Row | IC50 [1] [nM] | Structure (SMILES) | IL-2 1 nM [2] | IL-2 10 nM [2] | IL-2 100 nM [2] | IFN-y 1 nM [3] | IFN-y 10 nM [3] | IFN-y 100 nM [3] | CD69 10 nM [4] | CD69 100 nM [4]
5 | 5.01 to 20 | CCNc1cc(C2(Cc3nncn3C)COC2)cc(N2Cc3c(cc(CN4CCC[C@H](CSC)C4)cc3C(F)(F)F)C2=O)n1 [Compound 111, 2-[6-(ethylamino)-4-{3-[(4-methyl-1,2,4-triazol-3-yl)methyl]oxetan-3-yl}pyridin-2-yl]-6-{[(3S)-3-[(methylsulfanyl)methyl]piperidin-1-yl]methyl}-4-(trifluoromethyl)-3H-isoindol-1-one] | C (values between 0.10 and 0.30: range “C”) | B (values between 0.31 and 0.79: range “B”) | B (values between 0.31 and 0.79: range “B”) | B (values between 0.31 and 1.00: range “B;”) | B (values between 0.31 and 1.00: range “B;”) | B (values between 0.31 and 1.00: range “B;”) | B (values between 0.61 and 0.80: range “B;”) | A (values between 0.81 and 1.10: range “A”)
6 | 20 to 100 | CCSc1cc(C2(c3nncn3C)CC(C)C2)cc(N2Cc3c(cc(CN4CCC[C@H](C)C4)cc3C(F)(F)F)C2=O)n1 (stereo partly drawn) [Compound 112, 2-[6-(ethylsulfanyl)-4-[(1r,3s)-3-methyl-1-(4-methyl-1,2,4-triazol-3-yl)cyclobutyl]pyridin-2-yl]-6-{[(3S)-3-methylpiperidin-1-yl]methyl}-4-(trifluoromethyl)-3H-isoindol-1-one] | C (values between 0.10 and 0.30: range “C”) | C (values between 0.10 and 0.30: range “C”) | B (values between 0.31 and 0.79: range “B”) | C (values between 0.10 and 0.30: range “C”) | B (values between 0.31 and 1.00: range “B;”) | B (values between 0.31 and 1.00: range “B;”) | C (values between 0.30 and 0.60: range “C”) | B (values between 0.61 and 0.80: range “B;”)
7 | 20 to 100 | CCSc1cc(C2(c3nncn3C)CC(C)C2)cc(N2Cc3c(cc(CN4CCC[C@H](C)C4)cc3C(F)(F)F)C2=O)n1 (stereo partly drawn) [Compound 113, 2-[6-(ethylsulfanyl)-4-[(1s,3r)-3-methyl-1-(4-methyl-1,2,4-triazol-3-yl)cyclobutyl]pyridin-2-yl]-6-{[(3S)-3-methylpiperidin-1-yl]methyl}-4-(trifluoromethyl)-3H-isoindol-1-one] | C (values between 0.10 and 0.30: range “C”) | B (values between 0.31 and 0.79: range “B”) | B (values between 0.31 and 0.79: range “B”) | C (values between 0.10 and 0.30: range “C”) | B (values between 0.31 and 1.00: range “B;”) | B (values between 0.31 and 1.00: range “B;”) | B (values between 0.61 and 0.80: range “B;”) | A (values between 0.81 and 1.10: range “A”)
8 | 5.01 to 20 | C=CC(=O)NCc1cc(C2(Cc3nncn3C)COC2)cc(N2Cc3c(cc(CN4CCC[C@H](C)C4)cc3C(F)(F)F)C2=O)n1 [Compound 116, N-[(4-{3-[(4-methyl-1,2,4-triazol-3-yl)methyl]oxetan-3-yl}-6-(6-{[(3S)-3-methylpiperidin-1-yl]methyl}-1-oxo-4-(trifluoromethyl)-3H-isoindol-2-yl)pyridin-2-yl)methyl]prop-2-enamide] | C (values between 0.10 and 0.30: range “C”) | C (values between 0.10 and 0.30: range “C”) | B (values between 0.31 and 0.79: range “B”) | C (values between 0.10 and 0.30: range “C”) | C (values between 0.10 and 0.30: range “C”) | B (values between 0.31 and 1.00: range “B;”) | C (values between 0.30 and 0.60: range “C”) | B (values between 0.61 and 0.80: range “B;”)
